The subject of series [1] is Cc1ccc(OCCNc2nc(Nc3cc(C)[nH]n3)cc(C)c2C#N)cn1. The note with it: Homo sapiens.
Description: Activity at cSRC (unknown origin)
Series [2] has the same test system. The note with it: Homo sapiens. This is another data set of the same source.
Description: Activity at YES (unknown origin)
For another series, the species on record is Sus scrofa. In words: Inhibition of pig brain tubulin polymerization at 10 uM in presence of GTP relative to control.
For a further series, the species on record is Homo sapiens. The series is described as follows: Inhibition of Aurora kinase (unknown origin) assessed as reduction in histone H3 phosphorylation at Ser10 residue.
Series [3] concerns HCT-116. In words: Antitumor activity against human HCT116 cells xenografted subcutaneously in mouse assessed as tumor growth inhibition at 30 mg/kg, po qd after 14 days. Type of series: functional.
Series [4] relates to HCT-116. The series is described as follows: Antitumor activity against human HCT116 cells xenografted subcutaneously in mouse assessed as tumor growth inhibition at 100 mg/kg, po qd after 14 days. The class given is functional, organism-based. In general terms: In xenograft studies the graft and the host belong to different species.

As a reminder, the Km is the concentration of substrate that gives half-maximal velocity. A word on the inhibition: it is the relative decrease from the control value, in per cent. One may read the TGI as how far tumour growth fell short of that in controls.

Activity calls are given as the source filed them. No cut-off for these calls is given here.

Chain of Tyrosine-protein kinase Yes (Homo sapiens), P07947 (P07947 whole entry): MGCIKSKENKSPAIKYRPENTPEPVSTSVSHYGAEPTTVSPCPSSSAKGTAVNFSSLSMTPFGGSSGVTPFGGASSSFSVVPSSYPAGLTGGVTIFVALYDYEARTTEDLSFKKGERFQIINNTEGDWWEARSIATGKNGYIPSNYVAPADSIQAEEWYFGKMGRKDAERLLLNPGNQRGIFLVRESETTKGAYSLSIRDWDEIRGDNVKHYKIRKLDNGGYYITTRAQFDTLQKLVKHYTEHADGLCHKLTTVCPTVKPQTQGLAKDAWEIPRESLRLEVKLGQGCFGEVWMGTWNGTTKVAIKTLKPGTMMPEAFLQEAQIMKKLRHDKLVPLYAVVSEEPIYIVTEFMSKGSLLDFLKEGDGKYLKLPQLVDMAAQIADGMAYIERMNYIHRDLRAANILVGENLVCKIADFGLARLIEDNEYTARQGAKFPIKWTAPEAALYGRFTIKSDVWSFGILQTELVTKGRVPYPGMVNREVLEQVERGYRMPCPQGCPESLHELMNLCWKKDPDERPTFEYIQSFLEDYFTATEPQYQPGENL

Consider “Proto-oncogene tyrosine-protein kinase Src (Homo sapiens) (from UniProt P12931)”, for which the Michaelis-Menten constant (Km) in series [1] is 200 µM.
With “Tyrosine-protein kinase Yes (Homo sapiens), P07947”, the Km in series [2] came to 45 µM.
Turning to `Cc1ccc(OCCNc2nc(Nc3cc(C)[nH]n3)cc(C)c2C#N)cn1`, the inhibition in the series filed under Sus scrofa is 63%. In addition, the inhibition result in the series filed under Homo sapiens was “Active”.
On to `Cc1cc(Nc2cc(N3CCN(C)CC3)nc(Sc3ccc(NC(=O)C4CC4)cc3)n2)n[nH]1`, for which the tumour growth inhibition (TGI) in the series with HCT-116 [3] amounted to 60%; in the series on HCT-116 [4], 68%.

For the origin of these results see ChEMBL document CHEMBL3871290, “3-Cyano-6-(5-methyl-3-pyrazoloamino) pyridines (Part 2): A dual inhibitor of Aurora kinase and tubulin polymerization” (Bioorg Med Chem Lett, 2016).
